Data taken from patent US7618990B2, “Oxazolidone derivatives as PR modulators” (Wyeth, priority 2006, dated 2009).

Legend:
[1] = tested on: alkaline phosphatase activity in T47D cells; test: Effects of progestins and antiprogestins on alkaline phosphatase activity in T47D cells (antagonist mode); format: cell-based; details: Homo sapiens, in the presence of 1 nM progesterone, read-out: T47D Alkaline Phosphatase Activity IC50 (nM) or % inhibition; for IC50: 24 h; for inhibition at 3 µM: % inhibition at 3000 nM
Description: (1) Effects of Progestins and Antiprogestins on Alkaline Phosphatase Activity in T47D Cells
PURPOSE: To identify progestins or antiprogestins by determining a compound's effect on alkaline phosphatase activity in T47D cells.
Culture Medium: • DMEM:F12 (1:1) (GIBCO, BRL) supplemented with 5% (v/v) charcoal stripped fetal bovine serum (not heat-inactivated), 100 U/mL penicillin, 100 μg/mL streptomycin, and 2 mM the GlutaMax™ reagent (GIBCO, BRL).
Alkaline Phosphatase Assay Buffer: • I. 0.1M Tris-HCl, pH 9.8, containing 0.2% the Triton® X-100 reagent • II. 0.1M Tris-HCl, pH 9.8, containing 4 mM p-nitrophenyl phosphate (Sigma). B. Cell Culture and Treatment:
Frozen T47D cells were thawed in a 37° C. water bath and diluted to 280,000 cells/mL in culture medium. To each well in a 96-well plate (Falcon, Becton Dickinson Labware), 180 μL of diluted cell suspension was added.
Twenty μL of reference or test compounds diluted in the culture medium was then added to each well. When testing for progestin antagonist activity, reference antiprogestins or test compounds were added in the presence of 1 nM progesterone. The cells were incubated at 37° C. in a 5% CO2/humidified atmosphere for 24 h.
NOTE: For high throughput screening, one concentration of each compound was tested at 0.3 μg/mL. Based on an average molecular weight of 300 g/mol for the compounds in the library, the concentration was approximately 1 μM. Subsequently, active compounds were tested in dose response assays to determine EC50 and IC50. C. Alkaline Phosphatase Enzyme Assay:
At the end of treatment, the medium was removed from the plate. Fifty μL of assay buffer I was added to each well. The plates were shaken in a titer plate shaker for 15 min. Then 150 μL of assay buffer II was added to each well. Optical density measurements were taken at 5 min intervals for 30 min at a test wavelength of 405 nm.
For reference and test compounds, a dose response curve was generated for dose (X-axis) vs. the rate of enzyme reaction (slope) (Y-axis). Square root-transformed data was used for analysis of variance and nonlinear dose response curve fitting for both agonist and antagonist modes. Huber weighting was used to down-weight the effects of outliers. EC50 or IC50 values were calculated from the retransformed values. JMP software (SAS Institute, Inc.) was used for both one-way analysis of variance and non-linear dose response analysis in both single dose and dose response studies.
Progesterone and trimegestone were reference progestins and RU486 was the reference antiprogestin. All reference compounds were run in full dose response curves and the EC50 and IC50 values were calculated.

Row | Structure (SMILES) | melting point [°C] | IC50 [1] [nM] | other results
1 | CC[C@H]1COC(=O)N1c1nc(-c2ccc(Br)cc2)c(Cl)s1 [Example 13, (4S)-3-[4-(4-Bromophenyl)-5-chloro-1,3-thiazol-2-yl]-4-ethyl-1,3-oxazolidin-2-one] | 137 to 139 | 124 | 
2 | CC[C@H]1COC(=O)N1c1nc(-c2ccc(C#N)cc2)c(Cl)s1 [Example 14, 4-{5-Chloro-2-[(4S)-4-ethyl-2-oxo-1,3-oxazolidin-3-yl]-1,3-thiazol-4-yl}benzonitrile] | 157 to 159 | 294 | 
3 | C[C@@H]1COC(=O)N1c1nc(-c2cccc(C#N)c2)cs1 [Example 17, 3-{2-[(4R)-4-Methyl-2-oxo-1,3-oxazolidin-3-yl]-1,3-thiazol-4-yl}benzonitrile] | 187 to 189 |  | inhibition at 3 µM [1]: 84%
4 | CC1(C)COC(=O)N1c1nc(-c2cccc(Br)c2)cs1 [Example 18, 3-[4-(3-Bromophenyl)-1,3-thiazol-2-yl]-4,4-dimethyl-1,3-oxazolidin-2-one] | 142 to 144 | 30 | 
5 | CCC1(CC)COC(=O)N1c1nc(-c2ccc(C#N)cc2)cs1 [Example 19, 4-[2-(4,4-Diethyl-2-oxo-1,3-oxazolidin-3-yl)-1,3-thiazol-4-yl]benzonitrile] | 145 to 147 | 0.45 | 
6 | CC1(C)COC(=O)N1c1nc(-c2ccc(Cl)cc2Cl)cs1 [Example 118, 3-[4-(2,4-Dichlorophenyl)-1,3-thiazol-2-yl]-4,4-dimethyl-1,3-oxazolidin-2-one] |  |  | inhibition at 0.03 µM ([1]; % inhibition at 30 nM): 60%
7 | Cc1ccc(-c2csc(N3C(=O)OCC3(C)C)n2)cc1 [Example 121, 4,4-Dimethyl-3-[4-(4-methylphenyl)-1,3-thiazol-2-yl]-1,3-oxazolidin-2-one] |  | 110 | 
8 | CC1(C)COC(=O)N1c1nc(-c2cccc([N+](=O)[O-])c2)cs1 [Example 124, 4,4-Dimethyl-3-[4-(3-nitrophenyl)-1,3-thiazol-2-yl]-1,3-oxazolidin-2-one] |  | 59.7 | 
9 | CC1(C)COC(=O)N1c1nc(-c2ccc(OCc3ccccc3)cc2)cs1 [Example 125, 3-{4-[4-(Benzyloxy)phenyl]-1,3-thiazol-2-yl}-4,4-dimethyl-1,3-oxazolidin-2-one] |  |  | inhibition at 3 µM [1]: 80%
10 | CC1(C)COC(=O)N1c1nc(-c2ccc(Oc3ccccc3)cc2)cs1 [Example 127, 4,4-Dimethyl-3-[4-(4-phenoxyphenyl)-1,3-thiazol-2-yl]-1,3-oxazolidin-2-one] |  |  | inhibition at 3 µM [1]: 87%
11 | CC1(C)COC(=O)N1c1nc(-c2ccc(-c3ccccc3)cc2)cs1 [Example 128, 3-(4-Biphenyl-4-yl-1,3-thiazol-2-yl)-4,4-dimethyl-1,3-oxazolidin-2-one] |  |  | inhibition at 3 µM [1]: 47%
12 | COC(=O)c1ccc(-c2csc(N3C(=O)OCC3(C)C)n2)cc1 [Example 129, Methyl 4-[2-(4,4-dimethyl-2-oxo-1,3-oxazolidin-3-yl)-1,3-thiazol-4-yl]benzoate] |  | 20.3 | 
13 | N#Cc1ccc(-c2csc(N3CCOC3=O)n2)cc1 [Example 132, 4-[2-(2-Oxo-1,3-oxazolidin-3-yl)-1,3-thiazol-4-yl]benzonitrile] |  | 37.6 | 
14 | Cn1cc(C#N)cc1-c1csc(N2C(=O)OCC2(C)C)n1 [Example 134, 5-[2-(4,4-Dimethyl-2-oxo-1,3-oxazolidin-3-yl)-1,3-thiazol-4-yl]-1-methyl-1H-pyrrole-3-carbonitrile] |  | 284 | 
15 | CC1(C)CO/C(=N\C#N)N1c1nc(-c2ccc(C#N)cc2)cs1 [Example 135, {(2Z)-3-[4-(4-cyanophenyl)-1,3-thiazol-2-yl]-4,4-dimethyl-1,3-oxazolidin-2-ylidene}cyanamide] |  | 64.4 | 
16 | CC1(C)CO/C(=N\S(C)(=O)=O)N1c1nc(-c2ccc(C#N)cc2)cs1 [Example 136, N-{(2Z)-3-[4-(4-Cyanophenyl)-1,3-thiazol-2-yl]-4,4-dimethyl-1,3-oxazolidin-2-ylidene}methanesulfonamide] |  |  | inhibition at 3 µM [1]: 100%

Second part, led by results:

Row | melting point [°C] | IC50 [1] [nM] | Structure (SMILES) | other results
17 | 183 to 185 | 3.1 | CC1(C)COC(=O)N1c1nc(-c2ccc(C#N)cc2)cs1 [Example 6, 4-[2-(4,4-Dimethyl-2-oxo-1,3-oxazolidin-3-yl)-1,3-thiazol-4-yl]benzonitrile] | 
18 | 105 to 107 | 120 | CC[C@H]1COC(=O)N1c1nc(-c2ccc(Br)cc2)c(F)s1 [Example 11, (4S)-3-[4-(4-Bromophenyl)-5-fluoro-1,3-thiazol-2-yl]-4-ethyl-1,3-oxazolidin-2-one] | 
19 | 157 to 159 | 23.3 | CC[C@H]1COC(=O)N1c1nc(-c2ccc(C#N)cc2)c(F)s1 [Example 12, 4-{2-[(4S)-4-Ethyl-2-oxo-1,3-oxazolidin-3-yl]-5-fluoro-1,3-thiazol-4-yl}benzonitrile] | 
20 | 201 to 203 | 144 | CC[C@H]1COC(=O)N1c1nc(-c2ccc(C#N)cc2)c(C#N)s1 [Example 15, 4-(4-Cyanophenyl)-2-[(4S)-4-ethyl-2-oxo-1,3-oxazolidin-3-yl]-1,3-thiazole-5-carbonitrile] | 
21 | 126 to 128 | 142 | C[C@@H]1COC(=O)N1c1nc(-c2cccc(Br)c2)cs1 [Example 16, (4R)-3-[4-(3-bromophenyl)-1,3-thiazol-2-yl]-4-methyl-1,3-oxazolidin-2-one] | 
22 |  | 48 | CC1(C)COC(=O)N1c1nc(-c2ccc(Cl)c(Cl)c2)cs1 [Example 119, 3-[4-(3,4-Dichlorophenyl)-1,3-thiazol-2-yl]-4,4-dimethyl-1,3-oxazolidin-2-one] | 
23 |  | 247 | CC1(C)COC(=O)N1c1nc(-c2ccccc2)cs1 [Example 120, 4,4-Dimethyl-3-(4-phenyl-1,3-thiazol-2-yl)-1,3-oxazolidin-2-one] | 
24 |  | 557 | CC1(C)COC(=O)N1c1nc(-c2ccc3ccccc3c2)cs1 [Example 122, 4,4-Dimethyl-3-[4-(2-naphthyl)-1,3-thiazol-2-yl]-1,3-oxazolidin-2-one] | 
25 |  | 1420 | CC1(C)COC(=O)N1c1nc(-c2ccccc2[N+](=O)[O-])cs1 [Example 123, 4,4-Dimethyl-3-[4-(2-nitrophenyl)-1,3-thiazol-2-yl]-1,3-oxazolidin-2-one] | 
26 |  | 33.4 | Cc1cc(-c2csc(N3C(=O)OCC3(C)C)n2)ccc1F [Example 126, 3-[4-(4-Fluoro-3-methylphenyl)-1,3-thiazol-2-yl]-4,4-dimethyl-1,3-oxazolidin-2-one] | 
27 |  | 181 | COC(=O)c1ccc(-c2nc(N3C(=O)OCC3(C)C)sc2Cl)cc1 [Example 130, Methyl 4-[5-chloro-2-(4,4-dimethyl-2-oxo-1,3-oxazolidin-3-yl)-1,3-thiazol-4-yl]benzoate] | 
28 |  | 41.1 | O=C1OCCN1c1nc(-c2ccc(Cl)cc2)cs1 [Example 131, 3-[4-(4-Chlorophenyl)-1,3-thiazol-2-yl]-1,3-oxazolidin-2-one] | 
29 |  | 69.6 | Cn1cc(-c2csc(N3C(=O)OCC3(C)C)n2)cc1C#N [Example 133, 4-[2-(4,4-Dimethyl-2-oxo-1,3-oxazolidin-3-yl)-1,3-thiazol-4-yl]-1-methyl-1H-pyrrole-2-carbonitrile] | 
30 |  | 10.8 | CC(=O)/N=C1\OCC(C)(C)N1c1nc(-c2ccc(C#N)cc2)cs1 [Example 137, N-{(2Z)-3-[4-(4-Cyanophenyl)-1,3-thiazol-2-yl]-4,4-dimethyl-1,3-oxazolidin-2-ylidene}acetamide] | 
